What was measured:
Experiment in all cases: KINOMEscan kinase profiling
Type in all cases: binding
[1] = target: T1, ABL1(E255K)-phosphorylated (Homo sapiens, UniProt P00519, E255K); conditions: read-out: Percent Control
T1 construct: purchased DiscoverX KINOMEscan (kinases); BPS Bioscience (epigenetic targets)
Method: (§1) Kinase Selectivity Profiling
(§2) (out of which 90 are non-mutant kinases) was performed at DiscoverRx (http://www.discoverx.com/home) using the KINOMEscan™ screening platform at a test concentration of 10 µM. Results for primary screen […]
(§3) positive control signal) / (negative control signal – positive control signal) *100, where negative control corresponds to DMSO treatment (100%) and positive control to the signal obtained with a control competitive compound (0%). […]
(§4) using the Hill equation. Each target was assayed in duplicate. […]

[2] = target: T2, ABL1-nonphosphorylated (Homo sapiens, UniProt P00519); conditions: read-out: Percent Control
T2 construct: purchased DiscoverX KINOMEscan (kinases); BPS Bioscience (epigenetic targets)
Method: as §1, §2, §3, §4

[3] = target: T3, AKT1 (Homo sapiens, UniProt P31749); conditions: read-out: Percent Control
T3 construct: purchased DiscoverX KINOMEscan (kinases); BPS Bioscience (epigenetic targets)
Method: as §1, §2, §3, §4

[4] = target: T4, AURKA (Homo sapiens, UniProt O14965); conditions: read-out: Percent Control
T4 construct: purchased DiscoverX KINOMEscan (kinases); BPS Bioscience (epigenetic targets)
Method: as §1, §2, §3, §4

[5] = target: T5, AURKB (Homo sapiens, UniProt Q96GD4); conditions: read-out: Percent Control
T5 construct: purchased DiscoverX KINOMEscan (kinases); BPS Bioscience (epigenetic targets)
Method: as §1, §2, §3, §4

[6] = target: T6, BMPR2 (Homo sapiens, UniProt Q13873); conditions: read-out: Percent Control
T6 construct: purchased DiscoverX KINOMEscan (kinases); BPS Bioscience (epigenetic targets)
Method: as §1, §2, §3, §4

[7] = target: T7, CDK7 (Homo sapiens, UniProt P50613); conditions: read-out: Percent Control
T7 construct: purchased DiscoverX KINOMEscan (kinases); BPS Bioscience (epigenetic targets)
Method: as §1, §2, §3, §4

[8] = target: T8, CDK9 (Homo sapiens, UniProt P50750); conditions: read-out: Percent Control
T8 construct: purchased DiscoverX KINOMEscan (kinases); BPS Bioscience (epigenetic targets)
Method: as §1, §2, §3, §4

[9] = target: T9, CHEK1 (Homo sapiens, UniProt O14757); conditions: read-out: Percent Control
T9 construct: purchased DiscoverX KINOMEscan (kinases); BPS Bioscience (epigenetic targets)
Method: as §1, §2, §3, §4

[10] = target: T10, CSF1R (Homo sapiens, UniProt P07333); conditions: read-out: Percent Control
T10 construct: purchased DiscoverX KINOMEscan (kinases); BPS Bioscience (epigenetic targets)
Method: as §1, §2, §3, §4

[11] = target: T11, CSNK1D (Homo sapiens, UniProt P48730); conditions: read-out: Percent Control
T11 construct: purchased DiscoverX KINOMEscan (kinases); BPS Bioscience (epigenetic targets)
Method: as §1, §2, §3, §4

[12] = target: T12, ERK1 (Homo sapiens, UniProt P27361); conditions: read-out: Percent Control
T12 construct: purchased DiscoverX KINOMEscan (kinases); BPS Bioscience (epigenetic targets)
Method: as §1, §2, §3, §4

[13] = target: T13, FGFR3 (Homo sapiens, UniProt P22607); conditions: read-out: Percent Control
T13 construct: purchased DiscoverX KINOMEscan (kinases); BPS Bioscience (epigenetic targets)
Method: as §1, §2, §3, §4

[14] = target: T14, GSK3B (Homo sapiens, UniProt P49841); conditions: read-out: Percent Control
T14 construct: purchased DiscoverX KINOMEscan (kinases); BPS Bioscience (epigenetic targets)
Method: as §1, §2, §3, §4

[15] = target: T15, JNK1 (Homo sapiens, UniProt P45983); conditions: read-out: Percent Control
T15 construct: purchased DiscoverX KINOMEscan (kinases); BPS Bioscience (epigenetic targets)
Method: as §1, §2, §3, §4

[16] = target: T16, JNK3 (Homo sapiens, UniProt P53779); conditions: read-out: Percent Control
T16 construct: purchased DiscoverX KINOMEscan (kinases); BPS Bioscience (epigenetic targets)
Method: as §1, §2, §3, §4

[17] = target: T17, MARK3 (Homo sapiens, UniProt P27448); conditions: read-out: Percent Control
T17 construct: purchased DiscoverX KINOMEscan (kinases); BPS Bioscience (epigenetic targets)
Method: as §1, §2, §3, §4

[18] = target: T18, MEK2 (Homo sapiens, UniProt P36507); conditions: read-out: Percent Control
T18 construct: purchased DiscoverX KINOMEscan (kinases); BPS Bioscience (epigenetic targets)
Method: as §1, §2, §3, §4

[19] = target: T19, MLK1 (Homo sapiens, UniProt P80192); conditions: read-out: Percent Control
T19 construct: purchased DiscoverX KINOMEscan (kinases); BPS Bioscience (epigenetic targets)
Method: as §1, §2, §3, §4

[20] = target: T20, PAK4 (Homo sapiens, UniProt O96013); conditions: read-out: Percent Control
T20 construct: purchased DiscoverX KINOMEscan (kinases); BPS Bioscience (epigenetic targets)
Method: as §1, §2, §3, §4

[21] = target: T21, PCTK1 (Homo sapiens, UniProt Q00536); conditions: read-out: Percent Control
T21 construct: purchased DiscoverX KINOMEscan (kinases); BPS Bioscience (epigenetic targets)
Method: as §1, §2, §3, §4

[22] = target: T22, PDGFRB (Homo sapiens, UniProt P09619); conditions: read-out: Percent Control
T22 construct: purchased DiscoverX KINOMEscan (kinases); BPS Bioscience (epigenetic targets)
Method: as §1, §2, §3, §4

[23] = target: T23, PIK3CA (Homo sapiens, UniProt P42336); conditions: read-out: Percent Control
T23 construct: purchased DiscoverX KINOMEscan (kinases); BPS Bioscience (epigenetic targets)
Method: as §1, §2, §3, §4

[24] = target: T24, PKAC-alpha (Homo sapiens, UniProt P17612); conditions: read-out: Percent Control
T24 construct: purchased DiscoverX KINOMEscan (kinases); BPS Bioscience (epigenetic targets)
Method: as §1, §2, §3, §4

[25] = target: T25, PLK4 (Homo sapiens, UniProt O00444); conditions: read-out: Percent Control
T25 construct: purchased DiscoverX KINOMEscan (kinases); BPS Bioscience (epigenetic targets)
Method: as §1, §2, §3, §4

[26] = target: T26, RIOK2 (Homo sapiens, UniProt Q9BVS4); conditions: read-out: Percent Control
T26 construct: purchased DiscoverX KINOMEscan (kinases); BPS Bioscience (epigenetic targets)
Method: as §1, §2, §3, §4

[27] = target: T27, ROCK2 (Homo sapiens, UniProt O75116)
T27 construct: purchased DiscoverRx (DiscoverX), KINOMEscan screening platform
Method: as §1, §2, §3, §4

[28] = target: T28, SNARK (Homo sapiens, UniProt Q9H093); conditions: read-out: Percent Control
T28 construct: purchased DiscoverX KINOMEscan (kinases); BPS Bioscience (epigenetic targets)
Method: as §1, §2, §3, §4

[29] = target: T29, SRPK3 (Homo sapiens, UniProt Q9UPE1); conditions: read-out: Percent Control
T29 construct: purchased DiscoverX KINOMEscan (kinases); BPS Bioscience (epigenetic targets)
Method: as §1, §2, §3, §4

[30] = target: T30, TIE2 (Homo sapiens, UniProt Q02763); conditions: read-out: Percent Control
T30 construct: purchased DiscoverX KINOMEscan (kinases); BPS Bioscience (epigenetic targets)
Method: as §1, §2, §3, §4

[31] = target: T31, p38-alpha (Homo sapiens, UniProt Q16539); conditions: read-out: Percent Control
T31 construct: purchased DiscoverX KINOMEscan (kinases); BPS Bioscience (epigenetic targets)
Method: as §1, §2, §3, §4

T27 sequence (O75116 whole entry): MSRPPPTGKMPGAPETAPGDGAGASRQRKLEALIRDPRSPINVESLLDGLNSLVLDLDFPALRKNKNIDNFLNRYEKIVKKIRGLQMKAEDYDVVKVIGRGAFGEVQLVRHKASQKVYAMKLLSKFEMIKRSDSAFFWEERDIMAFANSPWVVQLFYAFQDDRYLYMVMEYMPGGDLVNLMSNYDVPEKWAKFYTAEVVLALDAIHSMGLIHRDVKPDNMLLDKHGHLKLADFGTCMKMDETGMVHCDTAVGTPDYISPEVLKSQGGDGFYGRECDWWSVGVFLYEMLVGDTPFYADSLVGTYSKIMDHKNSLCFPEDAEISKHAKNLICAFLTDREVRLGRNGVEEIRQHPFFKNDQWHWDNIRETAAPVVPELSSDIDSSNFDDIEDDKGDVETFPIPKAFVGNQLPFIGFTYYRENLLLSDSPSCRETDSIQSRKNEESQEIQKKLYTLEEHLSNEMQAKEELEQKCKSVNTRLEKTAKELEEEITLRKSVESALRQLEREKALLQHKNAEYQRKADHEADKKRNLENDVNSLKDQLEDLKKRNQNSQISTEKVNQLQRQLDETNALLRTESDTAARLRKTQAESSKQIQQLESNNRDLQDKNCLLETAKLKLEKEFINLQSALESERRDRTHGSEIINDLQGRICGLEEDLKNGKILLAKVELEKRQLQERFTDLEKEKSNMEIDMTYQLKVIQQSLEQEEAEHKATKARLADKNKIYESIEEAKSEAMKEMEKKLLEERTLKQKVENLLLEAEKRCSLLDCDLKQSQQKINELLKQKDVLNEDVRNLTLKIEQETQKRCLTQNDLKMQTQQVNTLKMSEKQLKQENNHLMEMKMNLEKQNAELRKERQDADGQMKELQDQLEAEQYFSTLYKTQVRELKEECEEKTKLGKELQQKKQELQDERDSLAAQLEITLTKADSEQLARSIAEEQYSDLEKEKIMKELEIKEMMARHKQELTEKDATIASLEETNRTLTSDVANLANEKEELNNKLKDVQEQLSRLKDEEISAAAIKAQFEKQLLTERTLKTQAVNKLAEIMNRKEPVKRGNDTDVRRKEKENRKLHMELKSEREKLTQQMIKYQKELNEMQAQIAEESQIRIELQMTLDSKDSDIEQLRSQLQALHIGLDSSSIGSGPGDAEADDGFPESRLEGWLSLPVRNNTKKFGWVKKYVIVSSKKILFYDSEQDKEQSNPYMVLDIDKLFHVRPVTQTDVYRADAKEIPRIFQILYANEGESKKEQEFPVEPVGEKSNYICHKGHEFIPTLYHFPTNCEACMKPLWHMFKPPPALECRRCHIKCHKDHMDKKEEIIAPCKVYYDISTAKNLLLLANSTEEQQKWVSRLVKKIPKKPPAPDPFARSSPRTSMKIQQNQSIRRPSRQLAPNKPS
T20 sequence (O96013 whole entry): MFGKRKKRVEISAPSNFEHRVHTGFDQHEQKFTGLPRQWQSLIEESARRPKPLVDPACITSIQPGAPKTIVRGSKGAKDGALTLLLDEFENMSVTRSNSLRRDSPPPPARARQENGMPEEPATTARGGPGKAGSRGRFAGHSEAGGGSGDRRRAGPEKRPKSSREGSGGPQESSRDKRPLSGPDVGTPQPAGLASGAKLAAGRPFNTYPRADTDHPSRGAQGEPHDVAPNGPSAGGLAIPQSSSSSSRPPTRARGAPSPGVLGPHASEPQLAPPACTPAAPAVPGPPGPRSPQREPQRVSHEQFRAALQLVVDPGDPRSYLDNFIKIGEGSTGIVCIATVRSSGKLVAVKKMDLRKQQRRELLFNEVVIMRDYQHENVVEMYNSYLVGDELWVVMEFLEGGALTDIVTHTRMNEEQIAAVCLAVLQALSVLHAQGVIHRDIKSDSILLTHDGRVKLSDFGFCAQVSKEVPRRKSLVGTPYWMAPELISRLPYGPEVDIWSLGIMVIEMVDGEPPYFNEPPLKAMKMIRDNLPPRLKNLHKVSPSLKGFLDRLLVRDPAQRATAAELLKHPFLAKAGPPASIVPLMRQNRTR
T19 sequence (P80192 whole entry): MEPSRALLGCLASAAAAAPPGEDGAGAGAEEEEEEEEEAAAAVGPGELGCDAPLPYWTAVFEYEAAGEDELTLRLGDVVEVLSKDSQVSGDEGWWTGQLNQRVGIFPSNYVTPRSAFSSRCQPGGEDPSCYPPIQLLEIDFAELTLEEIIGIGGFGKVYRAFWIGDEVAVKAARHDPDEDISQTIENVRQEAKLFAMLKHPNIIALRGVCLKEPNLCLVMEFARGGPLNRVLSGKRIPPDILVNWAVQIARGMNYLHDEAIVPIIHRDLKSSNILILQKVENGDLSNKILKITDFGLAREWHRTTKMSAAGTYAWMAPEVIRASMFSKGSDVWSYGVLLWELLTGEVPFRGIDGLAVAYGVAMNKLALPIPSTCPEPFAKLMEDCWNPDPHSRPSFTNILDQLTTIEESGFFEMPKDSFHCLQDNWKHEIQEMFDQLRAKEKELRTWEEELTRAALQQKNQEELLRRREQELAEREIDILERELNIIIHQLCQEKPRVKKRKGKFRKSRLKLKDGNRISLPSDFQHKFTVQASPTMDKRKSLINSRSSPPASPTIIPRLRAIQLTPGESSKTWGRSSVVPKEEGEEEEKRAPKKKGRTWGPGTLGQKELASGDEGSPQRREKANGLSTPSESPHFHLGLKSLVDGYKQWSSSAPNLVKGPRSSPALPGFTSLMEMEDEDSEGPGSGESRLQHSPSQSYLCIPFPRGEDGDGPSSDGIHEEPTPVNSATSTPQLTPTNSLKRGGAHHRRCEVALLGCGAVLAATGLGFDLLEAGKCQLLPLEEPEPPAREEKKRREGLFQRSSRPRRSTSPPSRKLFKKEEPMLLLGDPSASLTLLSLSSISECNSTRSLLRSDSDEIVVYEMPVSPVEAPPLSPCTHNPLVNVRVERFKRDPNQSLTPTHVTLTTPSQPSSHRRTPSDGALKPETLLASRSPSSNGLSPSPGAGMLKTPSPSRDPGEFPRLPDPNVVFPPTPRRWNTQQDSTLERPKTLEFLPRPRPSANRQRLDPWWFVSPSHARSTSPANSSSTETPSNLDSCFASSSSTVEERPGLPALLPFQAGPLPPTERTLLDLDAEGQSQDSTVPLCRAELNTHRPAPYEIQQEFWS
T22 sequence (P09619 33-1106): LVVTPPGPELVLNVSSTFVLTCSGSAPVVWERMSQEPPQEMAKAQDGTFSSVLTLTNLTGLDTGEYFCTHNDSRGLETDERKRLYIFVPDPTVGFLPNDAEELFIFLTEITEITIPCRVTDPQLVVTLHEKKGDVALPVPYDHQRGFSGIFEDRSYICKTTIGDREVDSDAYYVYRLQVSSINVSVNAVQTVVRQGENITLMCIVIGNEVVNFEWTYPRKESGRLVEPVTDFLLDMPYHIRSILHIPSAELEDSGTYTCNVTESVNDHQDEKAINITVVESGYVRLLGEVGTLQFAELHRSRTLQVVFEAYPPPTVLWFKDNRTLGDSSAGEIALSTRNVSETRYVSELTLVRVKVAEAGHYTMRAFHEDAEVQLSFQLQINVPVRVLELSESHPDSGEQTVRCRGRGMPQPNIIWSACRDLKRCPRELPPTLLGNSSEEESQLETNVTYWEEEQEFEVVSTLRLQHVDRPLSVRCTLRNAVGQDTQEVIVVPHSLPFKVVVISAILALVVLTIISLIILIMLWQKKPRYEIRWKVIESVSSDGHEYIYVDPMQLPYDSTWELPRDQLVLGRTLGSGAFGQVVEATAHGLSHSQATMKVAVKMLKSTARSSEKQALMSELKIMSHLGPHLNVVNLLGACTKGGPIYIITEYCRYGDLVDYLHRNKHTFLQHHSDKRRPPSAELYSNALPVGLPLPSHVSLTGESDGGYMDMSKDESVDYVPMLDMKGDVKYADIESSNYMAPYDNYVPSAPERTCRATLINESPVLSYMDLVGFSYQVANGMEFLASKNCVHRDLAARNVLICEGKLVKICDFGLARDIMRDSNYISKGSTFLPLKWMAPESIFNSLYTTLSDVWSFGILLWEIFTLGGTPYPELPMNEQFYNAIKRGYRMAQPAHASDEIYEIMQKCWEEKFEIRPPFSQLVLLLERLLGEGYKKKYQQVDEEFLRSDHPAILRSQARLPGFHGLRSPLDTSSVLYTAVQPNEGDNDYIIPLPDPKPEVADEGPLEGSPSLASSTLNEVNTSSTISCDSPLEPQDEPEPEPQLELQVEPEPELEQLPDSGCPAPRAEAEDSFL
T8 sequence (P50750 whole entry): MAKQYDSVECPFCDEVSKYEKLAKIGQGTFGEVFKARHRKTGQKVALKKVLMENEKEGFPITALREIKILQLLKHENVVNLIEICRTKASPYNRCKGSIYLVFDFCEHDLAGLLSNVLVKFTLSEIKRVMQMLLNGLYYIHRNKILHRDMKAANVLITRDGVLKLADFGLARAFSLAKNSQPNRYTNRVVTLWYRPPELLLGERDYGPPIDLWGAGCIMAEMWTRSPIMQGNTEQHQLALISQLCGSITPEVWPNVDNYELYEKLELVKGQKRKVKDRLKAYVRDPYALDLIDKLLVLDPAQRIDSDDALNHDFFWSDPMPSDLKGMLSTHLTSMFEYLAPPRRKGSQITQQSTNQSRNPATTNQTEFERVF
T15 sequence (P45983 whole entry): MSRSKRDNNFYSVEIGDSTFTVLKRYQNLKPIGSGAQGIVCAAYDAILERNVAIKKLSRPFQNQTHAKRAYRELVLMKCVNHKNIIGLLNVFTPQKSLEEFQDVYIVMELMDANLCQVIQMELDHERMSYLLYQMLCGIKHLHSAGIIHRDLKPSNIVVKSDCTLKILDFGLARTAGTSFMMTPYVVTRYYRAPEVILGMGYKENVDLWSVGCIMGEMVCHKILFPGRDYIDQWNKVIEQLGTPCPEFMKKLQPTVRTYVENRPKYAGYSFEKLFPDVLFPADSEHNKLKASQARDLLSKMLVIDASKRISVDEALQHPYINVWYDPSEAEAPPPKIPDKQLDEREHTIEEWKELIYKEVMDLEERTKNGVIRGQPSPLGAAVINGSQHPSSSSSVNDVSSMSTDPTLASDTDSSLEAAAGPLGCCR

## COc1cc2c(NC3CCN(C)CC3)cc(-c3ccc(C)o3)nc2cc1OCCCN1CCCC1 [CM-272, 6-methoxy-2-(5-methyl-2-furyl)-N-(1-methyl-4-piperidyl)-7-(3-pyrrolidin-1-ylpropoxy)quinolin-4-amine]
[1]
  remaining binding at 10 µM: 5.5%
[2]
  remaining binding at 10 µM: 9.4%
[3]
  remaining binding at 10 µM: 100%
[4]
  remaining binding at 10 µM: 71%
[5]
  remaining binding at 10 µM: 61%
[6]
  remaining binding at 10 µM: 32%
[7]
  remaining binding at 10 µM: 53%
[8]
  remaining binding at 10 µM: 96%
[9]
  remaining binding at 10 µM: 99%
[10]
  remaining binding at 10 µM: 100%
[11]
  remaining binding at 10 µM: 95%
[12]
  remaining binding at 10 µM: 100%
[13]
  remaining binding at 10 µM: 100%
[14]
  remaining binding at 10 µM: 61%
[15]
  remaining binding at 10 µM: 25%
[16]
  remaining binding at 10 µM: 8.9%
[17]
  remaining binding at 10 µM: 100%
[18]
  remaining binding at 10 µM: 22%
[19]
  remaining binding at 10 µM: 100%
[20]
  remaining binding at 10 µM: 100%
[21]
  remaining binding at 10 µM: 23%
[22]
  remaining binding at 10 µM: 100%
[23]
  remaining binding at 10 µM: 40%
[24]
  remaining binding at 10 µM: 100%
[25]
  remaining binding at 10 µM: 80%
[26]
  remaining binding at 10 µM: 27%
[27]; 10 µM, read-out: Percent Control
  remaining binding at 10 µM: 0.3%
[27]; KINOMEscan
  Kd: 1700 nM
[28]
  remaining binding at 10 µM: 12%
[29]
  remaining binding at 10 µM: 100%
[30]
  remaining binding at 10 µM: 90%
[31]
  remaining binding at 10 µM: 96%

— paper PMC5458547, “Discovery of first-in-class reversible dual small molecule inhibitors against G9a and DNMTs in hematological malignancies” (Nature Communications, 2017)
